Assay [1] has as its target catalytic domain (JH1, amino acids 826-1132) of human JAK2 (Homo sapiens (Human), UniProt O60674). Kind of assay: JAK2 LanthaScreen JH1 Binding Assay. The conditions noted are these: JAK2 JH1 1.5 nM, 50 nM tracer, 2 hours at 25° C.; read-out: JH1 BIND IC50. The essentials: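 FLAG-tagged biotinylated JAK2 JH1 (1.5 nM) incubated with compounds, 50 nM fluorescent tracer and 0.5 nM streptavidin-Tb in Tris pH 7.5 buffer with MgCl2, BSA, DTT, 2 h at 25 °C.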

Assay [2] addresses pseudo-kinase domain (JH2, amino-acids 536-812) of human Wild Type JAK2 (Homo sapiens (Human), UniProt O60674, F794H/W659A/W777A). Kind of assay: JAK2 LanthaScreen JH2-WT Binding Assay. The conditions noted are these: JAK2 JH2-WT 0.145 nM, 50 nM tracer, 1 hour at 25° C.; read-out: JH2 BIND WT IC50. An outline of the steps:
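Biotinylated His-Avi-tagged JH2 construct carrying W659A/W777A/F794H surface mutations, 0.145 nM, incubated 1 h at 25° C with compound, 50 nM fluorescent JH2 tracer and 0.25 nM streptavidin-Tb in pH 7.5 Tris buffer. Non-specific binding defined with 2 mM ATP. TR-FRET read; IC50 from four-parameter fit.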

Assay [3] concerns the target pseudo-kinase domain (JH2, amino-acids 536-812) of human V617F mutant JAK2 (Homo sapiens (Human), UniProt O60674, F794H/V617F/W659A/W777A). Kind of assay: JAK2 LanthaScreen JH2-V617F Binding Assay. Conditions: JAK2 JH2-V617F 0.26 nM, 50 nM tracer, 1 hour at 25° C.; read-out: JH2 BIND V617F IC50. An outline of the steps:
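Competition of compounds with a fluorescent tracer (50 nM) for the biotinylated domain (0.26 nM), detected via streptavidin-Tb (0.25 nM) after 1 h at 25° C in pH 7.5 Tris buffer containing glycerol, BSA and Brij-35. ATP at 2 mM gave background. IC50 by four-parameter fit.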
On the technique in general: In TR-FRET formats the signal depends on donor and acceptor labels being close together.

Assay [4] deals with catalytic domain (JH1, amino acids 808-1132) of human JAK2 (Homo sapiens (Human), UniProt O60674). In words: JAK2 HTRF Enzyme Activity Assay. Type of assay: biochemical. Conditions: JAK2 0.015 nM, ATP (30 μM or 1 mM), 60 minutes at 25° C.
catalytic domain (JH1, amino acids 808-1132) of human JAK2, sequence (O60674 808-1132): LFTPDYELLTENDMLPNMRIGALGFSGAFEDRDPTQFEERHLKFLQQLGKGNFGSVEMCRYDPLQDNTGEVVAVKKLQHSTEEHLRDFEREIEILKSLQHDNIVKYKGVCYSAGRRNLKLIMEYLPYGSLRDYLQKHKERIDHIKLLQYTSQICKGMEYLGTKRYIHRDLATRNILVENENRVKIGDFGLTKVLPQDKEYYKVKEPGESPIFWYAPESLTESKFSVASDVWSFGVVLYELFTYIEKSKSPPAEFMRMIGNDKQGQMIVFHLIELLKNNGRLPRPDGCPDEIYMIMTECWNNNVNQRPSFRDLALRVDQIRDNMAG

pseudo-kinase domain (JH2, amino-acids 536-812) of human V617F mutant JAK2, sequence (O60674 536-812 V617F/W659A/W777A/F794H): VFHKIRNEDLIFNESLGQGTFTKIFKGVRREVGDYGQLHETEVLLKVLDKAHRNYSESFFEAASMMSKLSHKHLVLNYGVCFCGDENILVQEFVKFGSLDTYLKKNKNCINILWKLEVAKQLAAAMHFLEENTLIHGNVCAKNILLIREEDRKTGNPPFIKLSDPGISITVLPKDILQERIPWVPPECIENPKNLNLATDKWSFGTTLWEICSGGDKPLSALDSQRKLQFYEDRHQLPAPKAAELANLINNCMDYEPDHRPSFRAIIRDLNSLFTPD
catalytic domain (JH1, amino acids 826-1132) of human JAK2, sequence (O60674 826-1132): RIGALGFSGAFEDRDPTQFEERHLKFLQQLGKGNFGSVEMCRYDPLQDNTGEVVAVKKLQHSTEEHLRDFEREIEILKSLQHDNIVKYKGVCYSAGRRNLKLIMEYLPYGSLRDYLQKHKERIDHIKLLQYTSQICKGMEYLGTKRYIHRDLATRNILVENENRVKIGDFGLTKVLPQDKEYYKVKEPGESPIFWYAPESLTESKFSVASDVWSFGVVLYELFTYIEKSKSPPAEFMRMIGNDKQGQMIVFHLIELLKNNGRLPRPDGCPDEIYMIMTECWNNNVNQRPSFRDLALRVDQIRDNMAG
pseudo-kinase domain (JH2, amino-acids 536-812) of human Wild Type JAK2, sequence (O60674 536-812 W659A/W777A/F794H): as the sequence (O60674 536-812 V617F/W659A/W777A/F794H) above, with F82V counted along it

In general, IC50 refers to the concentration that gives 50% inhibition. Regarding `CN(C)C(=O)c1ccc(-c2c(-c3cnn(C)c3)[nH]c3ncc4c(cc(Nc5cccc(-c6nnn[nH]6)c5)c(=O)n4C)c23)cc1` [Example 34, 4-(8-((3-(1H-tetrazol-5-yl)phenyl)amino)-6-methyl-2-(1-methyl-1H-pyrazol-4-yl)-7-oxo-6,7-dihydro-3H-pyrrolo[3,2-f][1,7]naphthyridin-1-yl)-N,N-dimethylbenzamide], the half-inhibitory concentration (IC50) in assay [1] was 0.1 to 0.5 µM; in assay [2], not above 0.1 µM; in assay [3] it was not above 0.1 µM; in assay [4], 0.1 to 0.5 µM.

In the case of `CN(C)C(=O)c1ccc(-c2c(-c3cnn(C)c3)[nH]c3ncc4c(cc(Nc5ccc(Cc6nnn[nH]6)cc5)c(=O)n4C)c23)cc1` [Example 35, 4-(8-((4-((1H-tetrazol-5-yl)methyl)phenyl)amino)-6-methyl-2-(1-methyl-1H-pyrazol-4-yl)-7-oxo-6,7-dihydro-3H-pyrrolo[3,2-f][1,7]naphthyridin-1-yl)-N,N-dimethylbenzamide], the half-maximal inhibitory concentration (IC50) in assay [1], in assay [2], in assay [3] and in assay [4] was not above 0.1 µM in each case.

Turning to `Cc1ccncc1-c1cc2c3c(-c4ccc(C(=O)N(C)C)cc4)c(-c4cnn(C)c4)[nH]c3ncc2n(C)c1=O` [Example 36, N,N-dimethyl-4-(6-methyl-2-(1-methyl-1H-pyrazol-4-yl)-8-(4-methylpyridin-3-yl)-7-oxo-6,7-dihydro-3H-pyrrolo[3,2-f][1,7]naphthyridin-1-yl)benzamide], the IC50 in assay [1], in assay [2], in assay [3] and in assay [4] was not above 0.1 µM in each case.

With `CC(=O)N1CC[C@H](c2cc3c4c(-c5ccccc5)c(-c5ccc(CN6CCC(S(C)(=O)=O)CC6)cc5)[nH]c4ncc3n(C)c2=O)C1` [Example 37, (R)-8-(1-acetylpyrrolidin-3-yl)-6-methyl-2-(4-((4-(methylsulfonyl)piperidin-1-yl)methyl)phenyl)-1-phenyl-3,6-dihydro-7/7-pyrrolo[3,2-f][1,7]naphthyridin-7-one], the half-maximal inhibitory concentration (IC50) in assay [1], in assay [2], in assay [3] and in assay [4] was not above 0.1 µM in each case.

Turning to `CN(C)C(=O)c1ccc(-c2c(-c3cnn(C)c3)[nH]c3ncc4c(cc(NC5CCC(CC#N)CC5)c(=O)n4C)c23)cc1` (centres unmarked) [Example 38, 4-(8-((4-(cyanomethyl)cyclohexyl)amino)-6-methyl-2-(1-methyl-1H-pyrazol-4-yl)-7-oxo-6,7-dihydro-3H-pyrrolo[3,2-f][1,7]naphthyridin-1-yl)-N,N-dimethylbenzamide], the half-maximal inhibitory concentration (IC50) was 0.1 to 0.5 µM in assay [1], not above 0.1 µM in assay [2], not above 0.1 µM in assay [3] and not above 0.1 µM in assay [4].

`CN(C)C(=O)c1ccc(-c2c(-c3cnn(C)c3)[nH]c3ncc4c(cc(N5CCC(S(C)(=O)=O)CC5)c(=O)n4C)c23)cc1` [Example 39, N,N-dimethyl-4-(6-methyl-2-(1-methyl-1H-pyrazol-4-yl)-8-(4-(methylsulfonyl)piperidin-1-yl)-7-oxo-6,7-dihydro-3H-pyrrolo[3,2-f][1,7]naphthyridin-1-yl)benzamide]: the IC50 in assay [1] is 0.1 to 0.5 µM; in assay [2], not above 0.1 µM; in assay [3], not above 0.1 µM; in assay [4], 0.1 to 0.5 µM.

With `COCCS(=O)(=O)C1CCN(c2cc3c4c(-c5ccc(C(=O)N(C)C)cc5)c(-c5cnn(C)c5)[nH]c4ncc3n(C)c2=O)CC1` [Example 40, 4-(8-(4-((2-Methoxyethyl)sulfonyl)piperidin-1-yl)-6-methyl-2-(1-methyl-1H-pyrazol-4-yl)-7-oxo-6,7-dihydro-3H-pyrrolo[3,2-f][1,7]naphthyridin-1-yl)-N,N-dimethylbenzamide], the IC50 in assay [1] is 1 to 10 µM; in assay [2], 0.1 to 0.5 µM; in assay [3], 0.1 to 0.5 µM; in assay [4] it was 1 to 10 µM.

For `CN(C)C(=O)c1ccc(-c2c(-c3cnn(C)c3)[nH]c3ncc4c(cc(N5CCC6(CCOC6)CC5)c(=O)n4C)c23)cc1` [Example 41, N,N-dimethyl-4-(6-methyl-2-(1-methyl-1H-pyrazol-4-yl)-7-oxo-8-(2-oxa-8-azaspiro[4.5]decan-8-yl)-6,7-dihydro-3H-pyrrolo[3,2-f][1,7]naphthyridin-1-yl)benzamide], the concentration for half-maximal inhibition (IC50) in assay [1] was 1 to 10 µM; in assay [2] it was 0.1 to 0.5 µM; in assay [3], 0.5 to 1 µM; in assay [4], 1 to 10 µM.

As for `COc1ccc(-c2c(-c3cnn(C)c3)[nH]c3ncc4c(cc(C(=O)N(C)C)c(=O)n4C)c23)cc1` [Example 42, 1-(4-Methoxyphenyl)-N,N,6-trimethyl-2-(1-methyl-1H-pyrazol-4-yl)-7-oxo-6,7-dihydro-3H-pyrrolo[3,2-f][1,7]naphthyridine-8-carboxamide], the half-maximal inhibitory concentration (IC50) in assay [1] was 1 to 10 µM; in assay [2], not above 0.1 µM; in assay [3] it was not above 0.1 µM; in assay [4] it was 1 to 10 µM.

In the case of `CN(C)C(=O)c1cc2c3c(-c4ccc5c(cnn5C)c4)c(-c4cnn(C)c4)[nH]c3ncc2n(C)c1=O` [Example 43, N,N,6-trimethyl-1-(1-methyl-1H-indazol-5-yl)-2-(1-methyl-1H-pyrazol-4-yl)-7-oxo-6,7-dihydro-3H-pyrrolo[3,2-f][1,7]naphthyridine-8-carboxamide], the IC50 in assay [1] is 1 to 10 µM; in assay [2], not above 0.1 µM; in assay [3], not above 0.1 µM; in assay [4] it was 1 to 10 µM.

`CN(C)C(=O)c1cc2c3c(-c4ccc(C5(C#N)CC5)cc4)c(-c4cnn(C)c4)[nH]c3ncc2n(C)c1=O` [Example 44, 1-(4-(1-cyanocyclopropyl)phenyl)-N,N,6-trimethyl-2-(1-methyl-1H-pyrazol-4-yl)-7-oxo-6,7-dihydro-3H-pyrrolo[3,2-f][1,7]naphthyridine-8-carboxamide]: the concentration for half-maximal inhibition (IC50) in assay [1] was 1 to 10 µM; in assay [2], not above 0.1 µM; in assay [3], not above 0.1 µM; in assay [4], 1 to 10 µM.

Source of the values: patent publication US11767323B2, “Tricyclic pyridone compounds as JAK2 V617F inhibitors” (Incyte Corporation, priority 2020, dated 2023).
